In patent publication US8188119B2, “Pyridine derivatives substituted with heterocyclic ring and γ-glutamylamino group, and antifungal agents containing same” (Eisai R&D Management Co., Ltd, priority 2008, dated 2012):
Values after ≈ are worked out from the molar mass of the structure shown. Read-outs that look alike come from different tables or passages of the source.

What was measured:
[1] = Comparative test of solubility in water (Britton-Robinson buffer); format: physicochemical; conditions: for solubility: aqueous buffer, Britton-Robinson buffer (ionic strength: 0.3), 25° C.; for Solubility in water compared with the parent compound: conclusion from Table 1
[2] = Pharmacokinetic evaluation of compound of Example 1 in mice (plasma concentration, LC-MS/MS); format: in vivo; conditions: female ICR mice, tail vein, 3 mg/kg
Description: 1. Pharmacokinetic Evaluation of Compound of Example 1 in Mice […] The blood samples were put in sampling tubes and stored under ice cooling, after which they were centrifuged for 5 minutes at 10,500×g and at 4° C. The plasma thus obtained was accurately divided into 10 μL amounts and stored at −20° C. until they were analyzed. The plasma concentrations of the compound of Example 1 and the active form thereof were measured using a liquid chromatography mass spectrometer (LC-MS/MS: Waters, Quattro Ultima Pt), and quantified by internal standard method. […] MultiScreen™) and analyzed by LC-MS/MS (Waters, Quattro Ultima Pt). In the chromatogram thus obtained, the surface area of the peaks for the compound of Example 1, the active form thereof (the parent compound of the compound of Example 1), and the internal standard substance were analyzed with analytic software (Waters: MassLynx 4.0), and the concentration of the compound included in the plasma was calculated by internal standard method. The active form concentration after administration of the compound of Example 1 was corrected with the molecular weight ratio, that is, the value of (the molecular weight of the compound of Example 1)/(the molecular weight of the active form).

[3] = buffer
[4] = Pharmacokinetic evaluation of compounds of Examples 2 and 3 in mice (plasma concentration, LC-MS); format: in vivo; conditions: female ICR mice, tail vein, 3 mg/kg as active form equivalent; for Plasma concentration of the administered compound: 20 min to 8 h; for Plasma concentration of the administered compound / Concentration of the active form in plasma after administration of the compound: FIG. 2
Description: 2. Pharmacokinetic Evaluation of Compound of Examples 2 and 3 in Mice
The compounds of Examples 2 and 3 were dissolved in respective concentrations of 1 and 1.5 mg/mL with 5% glucose (Otsuka Pharmaceutical) containing a 10 mM hydrochloric acid solution (Wako Pure Chemicals), and the active form was dissolved in a concentration of 0.5 mg/mL in 5% glucose (Otsuka Pharmaceutical) containing a 10 mM hydrochloric acid solution (Wako Pure Chemicals).
Using seven-week-old female ICR mice (Charles River Japan), with two mice per group, the compound of the present invention and the active form thereof were administered into the tail vein in a dose of 3 mg/kg, calculated as an active form equivalent. The tail vein was punctured 20 minutes, 45 minutes, and 1.5, 3, 5, and 8 hours after administration, and blood was collected with a heparin-treated pipette. The blood samples were put in sampling tubes and stored under ice cooling, after which they were centrifuged for 5 minutes at 10,500×g and at 4° C. The plasma thus obtained was accurately divided into 5 μL amounts and stored at −20° C. until they were analyzed.
The plasma concentrations of the compounds of Examples 2 and 3 and the active form thereof were measured using a liquid chromatography mass spectrometer (LC-MS: Waters, ZQ mass detector), and quantified by internal standard method. Imipramine hydrochloride (Sigma) was dissolved in a mixed solution of acetonitrile and methanol (9:1) so that the concentration would be 1 μmol/L, to prepare an internal standard substance solution (IS solution). The plasma was melted, after which 50 μL of IS solution was added thereto and mixed while still cooled with ice, and this was centrifuged (deproteinated) for 10 minutes at 1607×g and at 4° C., after which the supernatant was analyzed by LC-MS (Waters, ZQ mass detector). In the chromatogram thus obtained, the surface area of the peaks for the compounds of Examples 2 and 3, the active form thereof, and the internal standard substance were analyzed with analytic software (Waters: MassLynx 4.0), and the concentration of the compound included in the plasma was calculated by internal standard method.

[5] = Stability in solution in Britton-Robinson buffer; conditions: Britton-Robinson buffer (ionic strength: 0.3), 25° C.
[6] = pH 3, read-out: Solubility (mg/mL) pH 3
[7] = pH 7, read-out: Solubility (mg/mL) pH 7

solubility [1, 6] [mg/mL] | solubility [1, 7] [mg/mL] | Conversion into the active form in the bodies of the mice [2] | Plasma concentration of the administered compound ([2]; FIG. 1) | Stability in solution (remainder (%) after 24 h in dark place) pH 3 [3] [%] | Stability in solution (remainder (%) after 24 h in dark place) pH 7 [3] [%] | Conversion into the active form in the bodies of the mice [4] | Plasma concentration of the administered compound [4] | Concentration of the active form in plasma after administration of the compound [4] | Stability in solution (remainder (%) after 24 h in dark place) pH 2 ([5]; pH 2 (printed in pH 3 column), 24 h in dark place) | Stability in solution (remainder (%) after 24 h in dark place) pH 4 ([5]; pH 4 (printed in pH 3 column), 24 h in dark place) | Stability in solution (remainder (%) after 24 h in dark place) pH 7 ([5]; pH 7, 24 h in dark place) [%] | Structure (SMILES) | Solubility in water compared with the parent compound [1] | Plasma concentration of the active form after administration of the compound ([2]; FIG. 1)
1.1 (≈ 2260 µM) | 0.3 (≈ 615 µM) | rapidly converted into the active form | decreased quickly after administration | 96 | 92 |  |  |  |  |  |  | N[C@@H](CCC(=O)Nc1ncccc1-c1cc(Cc2ccc(COc3ccccn3)cc2)no1)C(=O)O [Example 1, (S)-2-Amino-4-(3-(3-(4-(pyridin-2-yloxymethyl)-benzyl)-isoxazol-5-yl)-pyridin-2-ylcarbamoyl)-butyric acid] | higher solubility in water than does the parent compound | increased quickly from immediately after administration
45 (≈ 89700 µM) | 0.2 (≈ 399 µM) |  |  | 88 | 44 | rapidly converted into the active form | not detected | rose sharply after administration |  |  |  | COC(=O)[C@@H](N)CCC(=O)Nc1ncccc1-c1cc(Cc2ccc(COc3ccccn3)cc2)no1 [Example 2, (S)-2-Amino-4-(3-{-[4-(pyridin-2-yloxymethyl)-benzyl]soxazol-5-yl}-pyridin-2-ylcarbamoyl)-butyric acid methyl ester] | higher solubility in water than does the parent compound | 
12 (≈ 21500 µM) | 1.1 (≈ 1970 µM) |  |  | 116 | 82 | rapidly converted into the active form | not detected | rose sharply after administration |  |  |  | CN(C)CCOC(=O)[C@@H](N)CCC(=O)Nc1ncccc1-c1cc(Cc2ccc(COc3ccccn3)cc2)no1 [Example 3, (S)-2-Amino-4-(3-{3-[4-(pyridin-2-yloxymethyl)-benzyl]-isoxazol-5-yl}-pyridin-2-ylcarbamoyl)-butyric acid 2-dimethylamino-ethyl ester] | higher solubility in water than does the parent compound | 
0.29 (≈ 809 µM) | 0.001 (≈ 2.79 µM) |  |  |  |  |  |  |  | 90 (pH 2) % | 99 (pH 4) % | 95 | Nc1ncccc1-c1cc(Cc2ccc(COc3ccccn3)cc2)no1 [Parent compound, 3-(3-(4-(Pyridin-2-yloxymethyl)-benzyl)-isoxazol-5-yl)-pyridin-2-ylamine] |  | 
